Test results reported in patent US7034045B1, “Monofluoroalkyl derivatives” (Eli Lilly and Company, priority 1999, dated 2006).

## CC(C)S(=O)(=O)NCC(C)(F)c1ccc(-c2ccc(CC#N)cc2)cc1 (stereo not shown) [Example 9, 2-{4-[4-(1-Fluoro-1-methyl-2-{[(methylethyl)sulfonyl]amino}ethyl)phenyl]phenyl}ethanenitrile]
  melting point: 155 to 157 °C
